Data as given in the supplement of paper PMC10307832.

Key:
Assay in all cases: relative viability (nuclei count vs DMSO), 5 days (fraction); higher = more cells survive
[1] = compound: Cc1ccc(-n2nc(C(C)(C)C)cc2NC(=O)Nc2ccc(OCCN3CCOCC3)c3ccccc23)cc1 [Doramapimod] + Cc1nc(Nc2ncc(C(=O)Nc3c(C)cccc3Cl)s2)cc(N2CCN(CCO)CC2)n1 [Dasatinib] (partner 0.075 µM)
Method in brief: (§1)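 Dosing by pin tool came one day after lung cancer cell lines were seeded in 1536-well plates, using either one drug or a fixed anchor-drug dose plus five library-drug doses (not always all listed) in √10 steps. After 5 days, nuclei were counted on 4× images. Relative viability is treated-well nuclei count divided by vehicle-well nuclei count, and values are medians of duplicate plates.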

[2] = compound: Cc1ccc(-n2nc(C(C)(C)C)cc2NC(=O)Nc2ccc(OCCN3CCOCC3)c3ccccc23)cc1 [Doramapimod] + N=C(N)NC(=N)NCCc1ccccc1 [Phenformin] (partner 250 µM)
Method in brief: as §1

[3] = compound: Cn1c(Nc2ccc(C(F)(F)F)cc2)nc2cc(Oc3ccnc(-c4ncc(C(F)(F)F)[nH]4)c3)ccc21 [RAF265] + Nc1ncn([C@H]2C[C@H](O)[C@@H](CO)O2)c(=O)n1 [Decitabine] (partner 2 µM)
Method in brief: as §1

[4] = compound: Cc1ccc(-n2nc(C(C)(C)C)cc2NC(=O)Nc2ccc(OCCN3CCOCC3)c3ccccc23)cc1 [Doramapimod] + NC(=O)Nc1cc(-c2cccc(F)c2)sc1C(=O)N[C@H]1CCCNC1 [AZD7762] (partner 0.2 µM)
Method in brief: as §1

Cell Line | relative viability ([1]; first compound 0.02 µM) | relative viability ([1]; first compound 0.06325 µM) | relative viability ([1]; first compound 0.2 µM) | relative viability ([1]; first compound 0.6325 µM) | relative viability ([1]; first compound 2 µM) | relative viability ([2]; first compound 0.02 µM) | relative viability ([2]; first compound 0.06325 µM) | relative viability ([2]; first compound 0.2 µM) | relative viability ([2]; first compound 0.6325 µM) | relative viability ([2]; first compound 2 µM) | relative viability ([3]; first compound 0.01 µM) | relative viability ([3]; first compound 0.03162 µM) | relative viability ([3]; first compound 0.1 µM) | relative viability ([3]; first compound 0.3162 µM) | relative viability ([3]; first compound 1 µM) | relative viability ([4]; first compound 0.02 µM) | relative viability ([4]; first compound 0.06325 µM) | relative viability ([4]; first compound 0.2 µM) | relative viability ([4]; first compound 0.6325 µM) | relative viability ([4]; first compound 2 µM)
LXF-289 | 0.229 | 0.216 | 0.207 | 0.252 | 0.247 | 0.491 | 0.556 | 0.472 | 0.459 | 0.44 | 0.446 | 0.399 | 0.393 | 0.345 | 0.26 | 1.07 | 1.16 | 1.14 | 1.1 | 1.12
NCI-H23 | 0.734 | 0.709 | 0.856 | 0.836 | 0.759 | 0.786 | 0.781 | 0.788 | 0.828 | 0.656 | 0.335 | 0.317 | 0.258 | 0.266 | 0.175 | 0.247 | 0.221 | 0.363 | 0.354 | 0.143
NCI-H322M | 0.276 | 0.28 | 0.259 | 0.262 | 0.24 | 0.813 | 0.782 | 0.852 | 0.909 | 0.828 | 0.704 | 0.667 | 0.593 | 0.495 | 0.395 | 0.564 | 0.593 | 0.52 | 0.484 | 0.687
NCI-H358 | 0.164 | 0.156 | 0.162 | 0.204 | 0.171 | 0.301 | 0.314 | 0.305 | 0.385 | 0.356 | 0.25 | 0.206 | 0.164 | 0.15 | 0.154 | 0.486 | 0.522 | 0.438 | 0.363 | 0.38
NCI-H441 | 0.413 | 0.506 | 0.544 | – | 0.425 | 0.895 | 0.808 | 0.828 | – | 0.729 | 0.25 | 0.227 | 0.22 | 0.278 | 0.214 | 1.07 | 1.28 | 1.21 | 0.98 | 0.961
NCI-H460 | 0.445 | 0.499 | 0.488 | 0.535 | 0.437 | 0.51 | 0.54 | 0.581 | 0.595 | 0.454 | 0.505 | 0.458 | 0.567 | 0.499 | 0.48 | 0.658 | 0.702 | 0.726 | 0.805 | 0.531
NCI-H522 | 0.715 | 0.851 | 0.863 | 0.785 | 0.812 | 0.6 | 0.573 | 0.621 | 0.677 | 0.603 | 0.651 | 0.585 | 0.604 | 0.729 | 0.617 | 0.879 | 0.744 | 0.708 | 0.736 | 0.9
NCI-H596 | 0.524 | 0.643 | 0.538 | 0.738 | 0.52 | 0.672 | 0.689 | 0.672 | 0.795 | 0.703 | 1.06 | 0.975 | 0.913 | 1.13 | 0.925 | 1.27 | 1.08 | 1.13 | 1.31 | 1.1
NCI-H647 | 0.179 | 0.19 | 0.157 | 0.21 | 0.147 | 0.436 | 0.593 | 0.614 | 0.543 | 0.494 | 0.394 | 0.33 | 0.357 | 0.266 | 0.262 | 0.602 | 0.616 | 0.461 | 0.485 | 0.454
NCI-H650 | 0.517 | 0.535 | 0.571 | 0.586 | 0.431 | 0.495 | 0.458 | 0.527 | 0.431 | 0.389 | 0.342 | 0.319 | 0.395 | 0.308 | 0.288 | 0.88 | 1.11 | 0.941 | 1.16 | 1.02
NCI-H727 | 0.352 | 0.341 | 0.283 | 0.353 | 0.388 | 0.652 | 0.498 | 0.445 | 0.544 | 0.576 | 0.885 | 0.854 | 0.708 | 0.805 | 0.75 | 0.605 | 0.576 | 0.642 | 0.487 | 0.528
NCI-H838 | 0.279 | 0.327 | 0.315 | 0.326 | 0.298 | 0.607 | 0.577 | 0.654 | 0.665 | 0.595 | 0.516 | 0.49 | 0.494 | 0.466 | 0.391 | 0.869 | 0.962 | 0.958 | 0.902 | 0.92
NCI-H1355 | 0.713 | 0.692 | 0.724 | 0.753 | 0.623 | 0.423 | 0.467 | 0.454 | 0.421 | 0.415 | 0.387 | 0.323 | 0.363 | 0.326 | 0.26 | 0.663 | 0.82 | 0.853 | 0.767 | 0.743
NCI-H1395 | 0.413 | 0.433 | 0.401 | 0.546 | 0.363 | 0.483 | 0.474 | 0.44 | 0.485 | 0.365 | 0.753 | 0.664 | 0.66 | 0.707 | 0.549 | 0.392 | 0.39 | 0.355 | 0.443 | 0.349
NCI-H1437 | 0.466 | 0.459 | 0.437 | 0.596 | 0.323 | 0.359 | 0.271 | 0.3 | 0.275 | 0.273 | 0.613 | 0.622 | 0.571 | 0.661 | 0.574 | 1.13 | 1.16 | 1.23 | 1.05 | 1.08
NCI-H1651 | 0.481 | 0.458 | 0.449 | 0.54 | 0.32 | 0.323 | 0.317 | 0.348 | 0.415 | 0.45 | 0.675 | 0.632 | 0.424 | 0.589 | 0.54 | 0.441 | 0.478 | 0.435 | 0.441 | 0.356
